{
  "source": "PubChem BioAssay (NCI)",
  "assay_in_all_cases": "NCI anticancer screen, dose series, 48 h",
  "key": {"786-0 renal": {"tested_on": "786-0 renal"}, "A498 renal": {"tested_on": "A498 renal"}, "A549 NSCLC": {"tested_on": "A549 NSCLC"}, "ACHN renal": {"tested_on": "ACHN renal"}, "BT-549 breast": {"tested_on": "BT-549 breast"}, "CAKI-1 renal": {"tested_on": "CAKI-1 renal"}, "CCRF-CEM leukemia": {"tested_on": "CCRF-CEM leukemia"}, "COLO 205 colon": {"tested_on": "COLO 205 colon"}, "DU-145 prostate": {"tested_on": "DU-145 prostate"}, "EKVX NSCLC": {"tested_on": "EKVX NSCLC"}, "HCC-2998 colon": {"tested_on": "HCC-2998 colon"}, "HCT-116 colon": {"tested_on": "HCT-116 colon"}, "HCT-15 colon": {"tested_on": "HCT-15 colon"}, "HL-60(TB) leukemia": {"tested_on": "HL-60(TB) leukemia"}, "HOP-62 NSCLC": {"tested_on": "HOP-62 NSCLC"}, "HOP-92 NSCLC": {"tested_on": "HOP-92 NSCLC"}, "HS 578T breast": {"tested_on": "HS 578T breast"}, "HT29 colon": {"tested_on": "HT29 colon"}, "IGROV1 ovarian": {"tested_on": "IGROV1 ovarian"}, "K-562 leukemia": {"tested_on": "K-562 leukemia"}, "KM12 colon": {"tested_on": "KM12 colon"}, "LOX IMVI melanoma": {"tested_on": "LOX IMVI melanoma"}, "M14 melanoma": {"tested_on": "M14 melanoma"}, "MALME-3M melanoma": {"tested_on": "MALME-3M melanoma"}, "MCF7 breast": {"tested_on": "MCF7 breast"}, "MDA-MB-231 breast": {"tested_on": "MDA-MB-231 breast"}, "MDA-MB-435": {"tested_on": "MDA-MB-435"}, "MOLT-4 leukemia": {"tested_on": "MOLT-4 leukemia"}, "NCI-H226 lung": {"tested_on": "NCI-H226 lung"}},
  "note": "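96-well plates; 48 h exposure; 5 concentrations. Endpoints by linear interpolation between flanking doses. Not reached: highest tested concentration assigned. At the GI50, growth is halved. Definition used: TGI = concentration required for complete inhibition of growth.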",
  "data": [
    {"smiles": "COc1ccc2nc3cc(Cl)ccc3c(Nc3cc(C(C)C)c(O)cc3C)c2c1", "values": [
      {"measurement": "GI50", "setting": "786-0 renal", "value": 1640, "unit": "nM"},
      {"measurement": "TGI", "setting": "786-0 renal", "value": 3050, "unit": "nM"},
      {"measurement": "GI50", "setting": "A498 renal", "value": 2050, "unit": "nM"},
      {"measurement": "TGI", "setting": "A498 renal", "value": 6580, "unit": "nM"},
      {"measurement": "GI50", "setting": "A549 NSCLC", "value": 2260, "unit": "nM"},
      {"measurement": "TGI", "setting": "A549 NSCLC", "value": 6980, "unit": "nM"},
      {"measurement": "GI50", "setting": "ACHN renal", "value": 2220, "unit": "nM"},
      {"measurement": "TGI", "setting": "ACHN renal", "value": 5080, "unit": "nM"},
      {"measurement": "GI50", "setting": "BT-549 breast", "value": 588, "unit": "nM"},
      {"measurement": "TGI", "setting": "BT-549 breast", "value": 2890, "unit": "nM"},
      {"measurement": "GI50", "setting": "CAKI-1 renal", "value": 2100, "unit": "nM"},
      {"measurement": "TGI", "setting": "CAKI-1 renal", "value": 5420, "unit": "nM"},
      {"measurement": "GI50", "setting": "CCRF-CEM leukemia", "value": 2080, "unit": "nM"},
      {"measurement": "TGI", "setting": "CCRF-CEM leukemia", "value": 6630, "unit": "nM"},
      {"measurement": "GI50", "setting": "COLO 205 colon", "value": 1810, "unit": "nM"},
      {"measurement": "TGI", "setting": "COLO 205 colon", "value": 3640, "unit": "nM"},
      {"measurement": "GI50", "setting": "DU-145 prostate", "value": 2480, "unit": "nM"},
      {"measurement": "TGI", "setting": "DU-145 prostate", "value": 6970, "unit": "nM"},
      {"measurement": "GI50", "setting": "EKVX NSCLC", "value": 2220, "unit": "nM"},
      {"measurement": "TGI", "setting": "EKVX NSCLC", "value": 7750, "unit": "nM"},
      {"measurement": "GI50", "setting": "HCC-2998 colon", "value": 2220, "unit": "nM"},
      {"measurement": "TGI", "setting": "HCC-2998 colon", "value": 5580, "unit": "nM"},
      {"measurement": "GI50", "setting": "HCT-116 colon", "value": 1590, "unit": "nM"},
      {"measurement": "TGI", "setting": "HCT-116 colon", "value": 2950, "unit": "nM"},
      {"measurement": "GI50", "setting": "HCT-15 colon", "value": 1700, "unit": "nM"},
      {"measurement": "TGI", "setting": "HCT-15 colon", "value": 3620, "unit": "nM"},
      {"measurement": "GI50", "setting": "HL-60(TB) leukemia", "value": 1310, "unit": "nM"},
      {"measurement": "GI50", "setting": "HOP-62 NSCLC", "value": 1910, "unit": "nM"},
      {"measurement": "TGI", "setting": "HOP-62 NSCLC", "value": 3480, "unit": "nM"},
      {"measurement": "GI50", "setting": "HOP-92 NSCLC", "value": 1160, "unit": "nM"},
      {"measurement": "TGI", "setting": "HOP-92 NSCLC", "value": 3110, "unit": "nM"},
      {"measurement": "GI50", "setting": "HS 578T breast", "value": 1610, "unit": "nM"},
      {"measurement": "TGI", "setting": "HS 578T breast", "value": 3400, "unit": "nM"},
      {"measurement": "GI50", "setting": "HT29 colon", "value": 2310, "unit": "nM"},
      {"measurement": "TGI", "setting": "HT29 colon", "value": 6070, "unit": "nM"},
      {"measurement": "GI50", "setting": "IGROV1 ovarian", "value": 1550, "unit": "nM"},
      {"measurement": "TGI", "setting": "IGROV1 ovarian", "value": 3350, "unit": "nM"},
      {"measurement": "GI50", "setting": "K-562 leukemia", "value": 2020, "unit": "nM"},
      {"measurement": "TGI", "setting": "K-562 leukemia", "value": "> 100000", "unit": "nM"},
      {"measurement": "GI50", "setting": "KM12 colon", "value": 2200, "unit": "nM"},
      {"measurement": "TGI", "setting": "KM12 colon", "value": 4670, "unit": "nM"},
      {"measurement": "GI50", "setting": "LOX IMVI melanoma", "value": 1790, "unit": "nM"},
      {"measurement": "TGI", "setting": "LOX IMVI melanoma", "value": 3300, "unit": "nM"},
      {"measurement": "GI50", "setting": "M14 melanoma", "value": 1740, "unit": "nM"},
      {"measurement": "TGI", "setting": "M14 melanoma", "value": 3310, "unit": "nM"},
      {"measurement": "GI50", "setting": "MALME-3M melanoma", "value": 1790, "unit": "nM"},
      {"measurement": "TGI", "setting": "MALME-3M melanoma", "value": 4400, "unit": "nM"},
      {"measurement": "GI50", "setting": "MCF7 breast", "value": 1660, "unit": "nM"},
      {"measurement": "TGI", "setting": "MCF7 breast", "value": 3960, "unit": "nM"},
      {"measurement": "GI50", "setting": "MDA-MB-231 breast", "value": 1820, "unit": "nM"},
      {"measurement": "TGI", "setting": "MDA-MB-231 breast", "value": 3970, "unit": "nM"},
      {"measurement": "GI50", "setting": "MDA-MB-435", "value": 1800, "unit": "nM"},
      {"measurement": "TGI", "setting": "MDA-MB-435", "value": 4480, "unit": "nM"},
      {"measurement": "GI50", "setting": "MOLT-4 leukemia", "value": 1380, "unit": "nM"},
      {"measurement": "TGI", "setting": "MOLT-4 leukemia", "value": 4360, "unit": "nM"},
      {"measurement": "GI50", "setting": "NCI-H226 lung", "value": 2230, "unit": "nM"},
      {"measurement": "TGI", "setting": "NCI-H226 lung", "value": 6640, "unit": "nM"}
    ]}
  ]
}
